Experimental data from ChEMBL document CHEMBL1145312, “Structure-activity relationships of triazolopyridine oxazole p38 inhibitors: identification of candidates for clinical development” (Bioorg Med Chem Lett, 2006).
≈ marks a conversion by molar mass, not a printed value.

What was measured:
[1] = Solubility in PBS buffer at ph 6.5; format: physicochemical
Monocyte = experiment: Inhibition of LPS-induced TNFalpha production in human monocytes; format: functional, cell-based
[2] = Permeability from apical to basolateral side of Caco-2 cell membrane; format: ADME, cell-based; settings: human
[3] = Volume of distribution in rat; format: ADME, organism-based; settings: in vivo, read-out: Vdss
[4] = Bioavailability in rat; format: ADME, organism-based; settings: in vivo
[5] = Volume of distribution in monkey; format: ADME, organism-based, Macaca mulatta; settings: rhesus monkey, in vivo; read-out: Vdss
[6] = Bioavailability in monkey; format: ADME, organism-based, Macaca mulatta; settings: rhesus monkey, in vivo
hERG (KCNH2) [7] = molecular target: T1, hERG (KCNH2) (Homo sapiens, UniProt Q12809); experiment: Inhibition of hERG channel current in HEK293 cells at 1 uM; format: toxicity, cell-based; settings: HEK293 cells that express hERG
T1 sequence (Q12809 whole entry): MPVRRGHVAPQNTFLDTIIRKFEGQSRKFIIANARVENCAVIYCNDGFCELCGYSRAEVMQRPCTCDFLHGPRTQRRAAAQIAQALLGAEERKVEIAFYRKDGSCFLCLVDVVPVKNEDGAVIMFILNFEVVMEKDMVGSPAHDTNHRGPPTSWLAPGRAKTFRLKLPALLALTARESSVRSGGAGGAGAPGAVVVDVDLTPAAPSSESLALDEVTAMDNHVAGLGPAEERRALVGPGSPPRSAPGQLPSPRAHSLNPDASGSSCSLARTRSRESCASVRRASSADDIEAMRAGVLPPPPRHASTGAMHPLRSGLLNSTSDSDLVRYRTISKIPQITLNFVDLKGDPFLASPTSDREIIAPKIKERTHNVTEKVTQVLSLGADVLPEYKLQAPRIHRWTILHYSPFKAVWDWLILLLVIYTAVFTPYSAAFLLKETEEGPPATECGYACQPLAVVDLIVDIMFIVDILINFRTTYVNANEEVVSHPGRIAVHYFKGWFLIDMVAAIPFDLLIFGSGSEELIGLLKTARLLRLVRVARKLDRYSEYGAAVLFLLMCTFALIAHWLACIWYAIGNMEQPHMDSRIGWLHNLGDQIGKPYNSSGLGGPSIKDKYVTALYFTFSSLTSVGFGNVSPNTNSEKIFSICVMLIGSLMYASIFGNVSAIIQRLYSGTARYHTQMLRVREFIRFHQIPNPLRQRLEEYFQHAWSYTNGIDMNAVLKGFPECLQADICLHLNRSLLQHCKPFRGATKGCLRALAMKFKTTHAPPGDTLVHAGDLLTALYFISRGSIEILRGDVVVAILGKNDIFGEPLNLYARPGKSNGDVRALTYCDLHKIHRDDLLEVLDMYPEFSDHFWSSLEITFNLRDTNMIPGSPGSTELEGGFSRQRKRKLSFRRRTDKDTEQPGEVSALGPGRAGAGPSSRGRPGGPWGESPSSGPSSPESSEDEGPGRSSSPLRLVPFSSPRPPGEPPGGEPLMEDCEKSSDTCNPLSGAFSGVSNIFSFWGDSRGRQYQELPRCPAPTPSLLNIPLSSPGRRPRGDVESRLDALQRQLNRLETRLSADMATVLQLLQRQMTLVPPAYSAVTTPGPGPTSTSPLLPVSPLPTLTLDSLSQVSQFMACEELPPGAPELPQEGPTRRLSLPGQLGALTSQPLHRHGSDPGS

Rattus norvegicus = organism: Rattus norvegicus; experiment: Inhibition of LPS-induced TNFalpha release in rat; format: functional
[8] = molecular target: Mitogen-activated protein kinase 14 (Homo sapiens, UniProt Q16539); experiment: Inhibition of p38alpha
Mitogen-activated protein kinase 14, sequence (Q16539 whole entry): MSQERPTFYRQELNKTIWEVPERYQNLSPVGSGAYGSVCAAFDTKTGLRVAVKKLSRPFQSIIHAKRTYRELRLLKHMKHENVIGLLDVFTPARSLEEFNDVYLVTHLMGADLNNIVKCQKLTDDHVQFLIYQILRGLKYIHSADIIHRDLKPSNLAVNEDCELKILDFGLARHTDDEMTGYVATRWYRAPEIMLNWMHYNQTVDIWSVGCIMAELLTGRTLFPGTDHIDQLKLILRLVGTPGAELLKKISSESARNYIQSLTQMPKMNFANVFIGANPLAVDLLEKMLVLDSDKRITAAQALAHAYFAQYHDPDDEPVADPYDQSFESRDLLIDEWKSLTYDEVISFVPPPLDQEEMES

Homo sapiens = organism: Homo sapiens; experiment: Inhibition of LPS-induced TNFalpha production in human whole blood; format: functional, organism-based
[9] = Permeability from basolateral to apical side of Caco-2 cell membrane; format: ADME, cell-based; settings: human
[10] = Half life in rat; format: ADME, organism-based; settings: in vivo
[11] = Plasma clearance in monkey; format: ADME, organism-based, Macaca mulatta; settings: rhesus monkey
[12] = Half life in monkey; format: ADME, organism-based, Macaca mulatta; settings: rhesus monkey, in vivo
hERG (KCNH2) [13] = molecular target: T1, hERG (KCNH2); experiment: Inhibition of hERG channel current in HEK293 cells at 3 uM; format: toxicity, cell-based; settings: HEK293 cells that express hERG
[14] = Plasma clearance in rat; format: ADME, organism-based

Compound	solubility [1] [µg/mL]	IC50 (Monocyte) [nM]	Papp A→B [2] [×10⁻⁶ cm/s]	Vd [3] [L/kg]	bioavailability [4] [%]	Vd [5] [L/kg]	bioavailability [6] [%]	inhibition at 1 µM (hERG (KCNH2) [7]) [%]	ED50 (Rattus norvegicus) [mg/kg]	IC50 [8] [nM]	IC50 (Homo sapiens) [nM]	Papp B→A [9] [×10⁻⁶ cm/s]	half-life [10] [h]	clearance [11] [mL/min/kg]	half-life [12] [h]	inhibition at 3 µM (hERG (KCNH2) [13]) [%]	clearance [14] [mL/min/kg]
CC(C)c1nnc2ccc(-c3ocnc3-c3cc(F)ccc3F)cn12	8.1 (≈ 23.8 µM)	25	43	0.8	58	1.3	40	0	0.3	5.8	259	29	–	–	–	–	–
CC(C)c1nnc2ccc(-c3ocnc3-c3cccc(Cl)c3)cn12	5.2 (≈ 15.3 µM)	52.3	–	1	37	1	19	–	2.4	13.5	550	–	1.6	15	1.1	14	17
